Data from patent US11104647B2, “Multi-functional, stimuli-responsive materials, methods of preparation, methods of use, and uses thereof” (ADA Foundation, priority 2016, dated 2021).

Legend:
Solubility in water = assay type: physicochemical
E. coli [1] = experiment: Bacterial growth curves (OD600) after exposure in buffer; assay type: cell-based, Escherichia coli (E. coli, K12)
Method: (§1) Azo-QPS-C16 was effective on both […] bacteria. The ability of bacteria to proliferate after exposure to Azo-QPS-C16 was characterized by adding growth medium and measuring the optical density (OD) at 600 nm every 15 minutes in pH 4.1, 5.8, and 7.9 buffer. […] However, exposure at pH 7.9 required a much higher concentration (40 μg/mL) to inhibit cell growth. […] The pH dependence of bactericidal activity of Azo-QPS-C16 in terms of minimum bactericidal concentration (MBC) was evaluated by inoculating cultures onto a Lysogeny Broth (LB) agar plate after treating the cells with a twofold dilution series of Azo-QPS-C16.
Bacterial strains and growth conditions. […]
In a 96-well plate, 2 μL of Azo-QPS-C16 at various concentrations in dimethyl sulfoxide (DMSO) were added to 98 μL of bacteria suspension per well for a final concentration ranging from a 2-fold dilution series between 40 to 1.25 μg/mL of Azo-QPS-C16. […] E. coli were cultured at 37° C., and the OD600 of each well was measured by a Tecan Spark microplate reader (Männedorf, Switzerland) every 15 minutes for up to 19 hours, with 30 seconds shaking before each measurement. S. mutans were grown at 37° C. with 5% CO2, and the OD600 of each well was measured periodically using a Molecular Devices (Sunnyvale, Calif.) SpectraMax M5 microplate reader. […]

S. mutans = experiment: Minimum bactericidal concentration (MBC) determination by agar colony formation; assay type: cell-based, Streptococcus mutans (S. mutans, UA159); conditions: for MBC: Streptococcus mutans, 0.75 h, 45 min treatment
Method: as §1
(§2) Bacterial strains and growth conditions. Streptococcus mutans (S. mutans, UA159) and Escherichia coli (E. coli, K12) were purchased from ATCC (American Type Culture Collection, Manassas, Va., USA). Todd Hewitt Broth (THB), and Lysogeny Broth (LB) powder and agar were purchased from BD (Becton, Dickinson and Company, Franklin Lakes, N.J., USA). Planktonic cultures were inoculated from 25% (by volume) glycerol frozen stocks stored at −80° C. E. coli cultures were grown in LB at 37° C. in a shaker-incubator. S. mutans cultures were grown in THB at 37° C. with 5% (by volume) CO2 overnight.
(§3) Bacterial growth curves. Overnight cultures of E. coli and S. mutans were diluted directly into buffers with different pH values (100 mmol/L, pH 4.1 sodium acetate buffer, pH 5.8 sodium phosphate buffer, and pH 7.9 sodium phosphate buffer) to an optical density at 600 nm (OD600) of approximately 0.001.
(§4) In a 96-well plate, 2 μL of Azo-QPS-C16 at various concentrations in dimethyl sulfoxide (DMSO) were added to 98 μL of bacteria suspension per well for a final concentration ranging from a 2-fold dilution series between 40 to 1.25 μg/mL of Azo-QPS-C16. After 45 minutes of treatment at room temperature, 10 μL from each well was transferred to a new 96-well plate already containing 100 μL growth media per well to measure the growth curves. E. coli were cultured at 37° C., and the OD600 of each well was measured by a Tecan Spark microplate reader (Männedorf, Switzerland) every 15 minutes for up to 19 hours, with 30 seconds shaking before each measurement. S. mutans were grown at 37° C. with 5% CO2, and the OD600 of each well was measured periodically using a Molecular Devices (Sunnyvale, Calif.) SpectraMax M5 microplate reader. All experiments were conducted in triplicate and repeated at least three times on different days.
(§5) Minimum bactericidal concentration (MBC) determination. MBC values were determined by agar colony formation. […] 5 μL of the suspended cells from each well were spotted onto an agar plate and incubated for 48 hours to allow colony formation, and the presence or absence of bacterial growth was determined by naked eye. […]

pKa = assay type: physicochemical
[2] = Dynamic light scattering (DLS) of pH-dependent assembly; assay type: physicochemical
Method: Particles with an average hydrodynamic diameter of 51±19 nm formed in mildly basic conditions, occurring simultaneously with the appearance of the absorbance peak at 554 nm. […] One cycle corresponds to the addition of a base and an acid. In base and acid, respectively, the absorbance at 554 nm increased and then decreased, and the particles formed and disassembled.
Dynamic light scattering (DLS) was performed using a Nicomp 380 ZLS DLS system (Particle Sizing Systems Inc., Santa Barbara, Calif.). Samples were contained in disposable glass culture tubes. Prior to sample loading, the tubes were blown with nitrogen gas and filled with 0.4 mL of a dye sample. The tubes were sealed using parafilm and then centrifuged at 14,000 rpm (19,000 g) for 5 minutes to separate larger particles. Samples were placed in the instrument and allowed to attain thermal equilibrium. An autocorrelation function was acquired for 3 minutes at 173° scattering angle. A Laplace inversion-based Nicomp routine was used to find the distribution of decay rates. The decay rates are linked to the effective sphere hydrodynamic diameters by the appropriate equations. The size distribution is reported as a discrete set of diameter bins and corresponding intensity weighted fractions as probabilities assigned to diameter bins.

E. coli [3] = experiment: Minimum bactericidal concentration (MBC) determination by agar colony formation; assay type: cell-based, Escherichia coli (E. coli, K12); conditions: for MBC: Escherichia coli, 0.75 h, 45 min treatment
Method: as §1, §2, §3, §4, §5

Question: Which results are given for `C=C(C)C(=O)Oc1ccc(/N=N/c2cc[n+](CCCCCCCCCCCCCCCC)cc2)cc1.[Br-]` [Azo-QPS-C16, (E)-1-hexadecyl-4-((4-(methacryloyloxy)phenyl)diazenyl)-pyridinium bromide]?
Answer: Solubility in water (Solubility in water): limited solubility in water; Concentration that fully inhibited E. coli growth (E. coli [1]; exposure at pH 4.1, growth followed up to 19 hours): 2.5 µg/mL; Concentration required to inhibit cell growth (E. coli [1]; exposure at pH 7.9): 40 µg/mL; MBC (S. mutans; pH 4.1 buffer): 1.25 µg/mL; MBC (S. mutans; pH 5.8 buffer): 5 µg/mL; MBC (S. mutans; pH 7.9 buffer): 10 µg/mL; Difference in MBC, acidic vs mildly basic conditions (pH 4.1 vs pH 7.9) (S. mutans; more effective in acidic conditions): 8 fold; pKa (pKa): 5.3; Average hydrodynamic diameter of particles ([2]; mildly basic conditions): 51±19 nm; Particle formation ([2]; pH 4.1 buffer): No particles were found; MBC (E. coli [3]; pH 4.1 buffer): 2.5 µg/mL; MBC (E. coli [3]; pH 5.8 buffer): 10 µg/mL; MBC (E. coli [3]; pH 7.9 buffer): 40 µg/mL; Difference in MBC between pH 4.1 and pH 7.9 (E. coli [3]; more effective at pH 4.1): 16 fold
